# In PMC9865890, “N-Derivatives of (Z)-Methyl 3-(4-Oxo-2-thioxothiazolidin-5-ylidene)methyl)-1H-indole-2-carboxylates as Antimicrobial Agents—In Silico and In Vitro Evaluation” (Pharmaceuticals, 2023):
# Read-outs that look alike come from different tables or passages of the source.
# Tests used:
# [1] = system: Aspergillus versicolor (ATCC 11730); experiment: Antifungal bioassay (MIC/MFC); assay type: cell-based; conditions: ATCC11730, A.v. (A. versicolor)
# Method: (§1) For the antifungal bioassays, six fungi were used: […] The organisms were obtained from the Mycological Laboratory, Department of Plant Physiology, Institute for Biological Research “Siniša Stankovic”, Belgrade, Serbia. All experiments were performed in duplicate.
# A. ochraceus = experiment: Antifungal bioassay (MIC/MFC); assay type: cell-based; conditions: Aspergillus ochraceus, A.o. (A. ochraceus); for MIC: read-out: MIC
# Method: as §1
# [2] = system: Aspergillus fumigatus (ATCC 1022); experiment: Antifungal bioassay (MIC/MFC); assay type: cell-based; conditions: ATCC1022, A.f. (A. fumigatus)
# Method: as §1
# [3] = system: Penicillium funiculosum (ATCC 36839); experiment: Antifungal bioassay (MIC/MFC); assay type: cell-based; conditions: Talaromyces funiculosus, ATCC36839; P.f. (P. funiculosum)
# Method: as §1
# [4] = system: Trichoderma viride (IAM 5061); experiment: Antifungal bioassay (MIC/MFC); assay type: cell-based; conditions: T.v. (T. viride)
# Method: as §1
# P. ochrochloron = experiment: Antifungal bioassay (MIC/MFC); assay type: cell-based; conditions: for MFC: P.o. (P. ochrochloron); for MIC: P.o. (P. ochrochloron; text: P. ochramensis)
# Method: as §1
# [5] = system: Staphylococcus aureus (ATCC 6538); experiment: Antibacterial microdilution (MIC/MBC); assay type: cell-based; conditions: S.a. (S. aureus)
# Method: (§2) The synthesized compounds (Table 1) were evaluated for their antibacterial activity against a panel of eight species using a microdilution method with ampicillin and streptomycin as reference drugs. […] The order of activity can be presented as: 8 > 11 > 2 > 1 > 12 > 3 > 17 > 7 > 5 > 13 > 14 > 16 > 9 > 4 = 6 > 15 > 10. […] Cloacae. […] The most sensitive bacteria appeared to be En. cloacae, while E. coli was the most resistant one, followed by M. flavus.
# (§3) The following Gram-negative bacteria: Escherichia coli (ATCC 35210), Enterobacter cloacae (clinical isolate), Salmonella typhimurium (ATCC 13311), as well as Gram-positive bacteria: Listeria monocytogenes (NCTC 7973), Bacillus cereus (clinical isolate), and Staphylococcus aureus (ATCC 6538) were used. The organisms were obtained from the Mycological Laboratory, Department of Plant Physiology, Institute for Biological Research “Siniša Stankovic”, Belgrade, Serbia. The minimum inhibitory (MIC) and minimum bactericidal (MBC) concentrations were determined by the modified microdilution method, as previously reported.
# [6] = system: Escherichia coli (ATCC 35210); experiment: Antibacterial microdilution (MIC/MBC); assay type: cell-based; conditions: Escherichia coli, ATCC35210, E. coli; for MIC: read-out: MIC
# Method: as §2, §3
# [7] = system: Enterobacter cloacae (clinical isolate); experiment: Antibacterial microdilution (MIC/MBC); assay type: cell-based; conditions: Enterobacter cloacae, En.cl (En. cloacae); for MIC: read-out: MIC
# Method: as §2, §3
# M. flavus = experiment: Antibacterial microdilution (MIC/MBC); assay type: cell-based; conditions: Micrococcus flavus; M.f. (M. flavus)
# Method: as §2, §3
# [8] = system: Listeria monocytogenes (NCTC 7973); experiment: Antibacterial microdilution (MIC/MBC); assay type: cell-based; conditions: Listeria monocytogenes, NCTC7973, L.m. (L. monocytogenes); for MIC: read-out: MIC
# Method: as §2, §3
# [9] = system: Salmonella typhimurium (ATCC 13311); experiment: Antibacterial microdilution (MIC/MBC); assay type: cell-based; conditions: S.t. (S. typhimurium)
# Method: as §2, §3
# P. aeruginosa = experiment: Antibacterial microdilution (MIC/MBC); assay type: cell-based; conditions: Pseudomonas aeruginosa, P.a. (P. aeruginosa); for MIC: read-out: MIC
# Method: as §2, §3
# [10] = system: Bacillus cereus (clinical isolate); experiment: Antibacterial microdilution (MIC/MBC); assay type: cell-based; conditions: B.c. (B. cereus)
# Method: as §2, §3
# [11] = system: Penicillium verrucosum var. cyclopium (food isolate); experiment: Antifungal bioassay (MIC/MFC); assay type: cell-based
# Method: For the antifungal bioassays, six fungi were used: Aspergillus niger (ATCC 6275), Aspergillus fumigatus (ATCC 1022), Aspergillus versicolor (ATCC 11730), Penicillium funiculosum (ATCC 36839), Trichoderma viride (IAM 5061), and Penicillium verrucosum var. cyclopium (food isolate). The organisms were obtained from the Mycological Laboratory, Department of Plant Physiology, Institute for Biological Research “Siniša Stankovic”, Belgrade, Serbia. All experiments were performed in duplicate.
# [12] = system: Aspergillus niger (ATCC 6275); experiment: Antifungal bioassay (MIC/MFC); assay type: cell-based; conditions: ATCC6275, A.n. (A. niger)
# Method: as §1
# [13] = Trichoderma viride, IAM5061, read-out: MIC
# [14] = Penicillium ochrochloron, read-out: MIC
# [15] = Staphylococcus aureus, ATCC6538
# [16] = Staphylococcus aureus, ATCC6538, read-out: MIC
# [17] = Salmonella enterica, read-out: MIC
SMILES,MFC [1] [µg/mL],MIC [1] [µg/mL],MFC (A. ochraceus) [µg/mL],MIC (A. ochraceus) [µg/mL],MFC [2] [µg/mL],MIC [2] [µg/mL],MFC [3] [µg/mL],MIC [3] [µg/mL],MFC (P. ochrochloron; Penicillium ochrochloron) [µg/mL],MIC (P. ochrochloron; [14]) [µg/mL],"MBC [5, 15] [µg/mL]","MIC [5, 16] [µg/mL]",MBC [6] [µg/mL],MIC [6] [µg/mL],MBC [7] [µg/mL],MIC [7] [µg/mL],MBC (M. flavus) [µg/mL],MIC (M. flavus) [µg/mL],MBC [8] [µg/mL],MIC [8] [µg/mL],other results
"COC(=O)c1[nH]c2ccccc2c1/C=C1\SC(=S)N(c2cccc(O)c2)C1=O [Compound 3, (Z)-methyl 3-((3-(3-hydroxyphenyl)-4-oxo-2-thioxothiazolidin-5-ylidene)methyl)-1H-indole-2-carboxylate]",15 ± 3,8 ± 0.6,15 ± 3,8 ± 0.6,60 ± 6,30 ± 10,15 ± 3,8 ± 0.6,15 ± 3,8 ± 0.6,30 ± 10,15,30 ± 10,22 ± 5,30 ± 10,15 ± 9,60 ± 6,45 ± 3,60 ± 6,30 ± 10,"MIC [4]: 4 ± 1 µg/mL; MFC ([4]; Trichoderma viride, IAM5061): 8 ± 0.6 µg/mL; MIC [4, 13]: 4 µg/mL; MIC [5]: 15 ± 9 µg/mL; MIC [9]: 15 ± 9 µg/mL; MBC ([9]; Salmonella enterica): 30 ± 10 µg/mL; MIC [9, 17]: 15 µg/mL; MBC (P. aeruginosa): 60 ± 6 µg/mL; MIC (P. aeruginosa): 30 ± 10 µg/mL; MIC [10]: 15 ± 9 µg/mL; MBC ([10]; Bacillus cereus): 30 ± 10 µg/mL; MIC ([10]; Bacillus cereus, read-out: MIC): 15 µg/mL; MFC [11]: 30 ± 10 µg/mL; MIC [11]: 15 ± 3 µg/mL; melting point: 245 to 247 °C"
"COC(=O)c1[nH]c2ccc(F)cc2c1/C=C1\SC(=S)N(CCC(=O)O)C1=O [Compound 14, (Z)-3-(5-((5-fluoro-2-(methoxycarbonyl)-1H-indol-3-yl)methylene)-4-oxo-2-thioxothiazolidin-3-yl)propanoic acid]",30 ± 10,15 ± 3,30 ± 10,15 ± 3,120 ± 40,60 ± 6,30 ± 10,15 ± 3,30 ± 10,15 ± 3,60 ± 6,30 ± 10,60 ± 6,45 ± 3,30 ± 10,15 ± 9,60 ± 6,45 ± 3,60 ± 6,45 ± 3,"MFC [12]: 30 ± 10 µg/mL; MIC [12]: 15 ± 3 µg/mL; MBC ([9]; Salmonella enterica): 60 ± 6 µg/mL; MIC [9, 17]: 45 ± 3 µg/mL; MBC (P. aeruginosa): 30 ± 10 µg/mL; MIC (P. aeruginosa): 15 ± 9 µg/mL; MBC ([10]; Bacillus cereus): 60 ± 6 µg/mL; MIC ([10]; Bacillus cereus, read-out: MIC): 30 ± 10 µg/mL; MFC [11]: 30 ± 10 µg/mL; MIC [11]: 15 ± 3 µg/mL; melting point: 275 to 276 °C"
"COC(=O)c1[nH]c2ccccc2c1/C=C1\SC(=S)N(N2CCOCC2)C1=O [Compound 6, (Z)-methyl 3-((3-morpholino-4-oxo-2-thioxothiazolidin-5-ylidene)methyl)-1H-indole-2-carboxylate]",15 ± 3,8 ± 0.6,15 ± 3,8 ± 0.6,120 ± 40,60 ± 6,30 ± 10,15 ± 3,15 ± 3,8,30 ± 10,15,120 ± 10,60 ± 6,30 ± 10,15 ± 9,60 ± 6,45 ± 3,60 ± 6,30 ± 10,"MIC [4]: 8 ± 0.6 µg/mL; MFC ([4]; Trichoderma viride, IAM5061): 15 ± 3 µg/mL; MIC [4, 13]: 8 µg/mL; MIC (P. ochrochloron): 8 ± 0.6 µg/mL; MIC [5]: 15 ± 9 µg/mL; MBC ([9]; Salmonella enterica): 60 ± 6 µg/mL; MIC [9, 17]: 30 ± 10 µg/mL; MBC (P. aeruginosa): 60 ± 6 µg/mL; MIC (P. aeruginosa): 30 ± 10 µg/mL; MBC ([10]; Bacillus cereus): 60 ± 6 µg/mL; MIC ([10]; Bacillus cereus, read-out: MIC): 30 ± 10 µg/mL; MFC [11]: 30 ± 10 µg/mL; MIC [11]: 15 ± 3 µg/mL; melting point: 278 to 280 °C"
